Assay results from article PMC12670160, “A drug-repurposing screen of FDA- and EMA-approved drugs identifies two NF-κB inhibitors active against eumycetoma” (Journal of Antimicrobial Chemotherapy, 2025).
≈ marks a conversion by molar mass, not a printed value. Entries after “also recorded” stand apart in the source; their conditions may differ. Structures can show the parent of a compound that is named as a salt.

Tests used:
M. mycetomatis strain I1 = test: IC50 and MIC determination, CellTiter-Glo, strain I1; assay type: cell-based, Madurella mycetomatis; settings: Madurella mycetomatis, I1
[1] = tested on: M. mycetomatis strain mm55; test: IC50 and MIC determination, CellTiter-Glo, strain mm55; assay type: cell-based, Madurella mycetomatis; settings: Madurella mycetomatis; for IC50: concentration inhibiting 50% of fungal hyphae growth; for MIC: concentration with complete growth inhibition
Rhodnius prolixus = tested on: Rhodnius prolixus; set-up: method as in PMID 30233391; settings: insect vector Rhodnius prolixus; cited from earlier work
M. mycetomatis strain P1 = test: IC50 and MIC determination, CellTiter-Glo, strain P1; assay type: cell-based, Madurella mycetomatis; settings: Madurella mycetomatis, P1
[2] = tested on: healthy uninfected G. mellonella larvae; settings: 20 µL of 20 µM injected
Protocol: (§1) For in vivo experiments, sixth-week instar G. mellonella larvae were purchased from Blue-Lagoon, Maassluis, The Netherlands. The larvae were raised and kept in the dark at room temperature. Larvae without any discoloration and weighing around 500 mg were selected for experiments.
To determine the toxicity, 15 healthy uninfected larvae were injected with 20 µL of 20 µM compound as previously described.[16] […] As a control, a separate group of larvae were injected with 20 µL of PBS. Larvae were housed in Petri dishes with Whatman paper at 37°C in the dark. Survival was monitored for 10 days.

[3] = tested on: vancomycin-resistant Staphylococcus aureus strains; settings: cited from earlier work
[4] = tested on: M. mycetomatis MM55-infected G. mellonella larvae; test: Therapeutic efficacy in M. mycetomatis-infected G. mellonella larvae (survival, log-rank); assay type: in vivo, Galleria mellonella; settings: 20 µL of 20 µM at 4, 28 and 52 h post infection; 10 days
Protocol: as §1
The wet weight was determined and 10 mL of PBS per gram of mycelia was added. The suspension was then sonicated for 2 min to achieve a particle size of 10 µm. The fungal suspension (4 mg/40 µL) was injected into the last left pro-leg of a healthy G. mellonella larva with an insulin 29G U-100 needle to reach a final inoculum of 4 mg/larva. Larvae were placed in Petri dishes containing Whatman paper in a 37°C incubator.
A control group was also included in which M. mycetomatis-infected larvae were treated with PBS or with 1 mg/kg amphotericin B (Fungizone, Bristol Myers Squibb, Utrecht, The Netherlands). […] The treatment was repeated at 28 h post infection and 52 h post infection via different prolegs. The infection was monitored for 10 days.
To compare the survival rates between PBS treatment control and the different experimental groups a log-rank test was performed. All data were processed and performed in GraphPad Prism 10.

M. mycetomatis [5] = test: In vitro susceptibility, averages over M. mycetomatis isolates (average metabolic activity at 2 µM, mean MIC); assay type: cell-based; settings: Madurella mycetomatis, 96 h, 4 days at 37°C, CellTiter-Glo, average of 3 isolates, 20% or below = inhibition
[6] = tested on: M. mycetomatis-infected G. mellonella larvae; settings: M. mycetomatis-infected G. mellonella larvae; cited from earlier work
M. mycetomatis [7] = tested on: M. mycetomatis; set-up: method as in PMID 35398930, PMID 15793113, PMID 36005544, PMID 34181477, PMID 22964246; settings: against M. mycetomatis; cited from earlier work
eumycetoma = settings: cited from earlier work
[8] = tested on: M. mycetomatis mouse model; set-up: method as in PMID 26150103; settings: cited from earlier work
[9] = tested on: primary human neutrophils exposed to C. albicans; set-up: method as in PMID 19609651; settings: cited from earlier work
M. mycetomatis [10] = tested on: M. mycetomatis; set-up: method as in PMID 34209118; settings: in vitro; cited from earlier work

Compound: O=C(Nc1cc(C(F)(F)F)cc(C(F)(F)F)c1)c1cc(Cl)ccc1O [IKK2 inhibitor V (IMD-0354), IMD-0354]
- IC50 (M. mycetomatis strain I1): 1.68 µM
- MIC (M. mycetomatis strain I1): 2 µM (≈ 0.767 µg/mL)
- IC50 [1]: 1.76 µM
- MIC [1]: 2 µM (≈ 0.767 µg/mL)
- expression of antimicrobial peptides (Rhodnius prolixus): decreased
- mortality after Trypanosoma cruzi infection (Rhodnius prolixus): reduced mortality
- IC50 (M. mycetomatis strain P1): 0.17 µM
- MIC (M. mycetomatis strain P1): 0.25 µM (≈ 0.0959 µg/mL)
- Toxicity in G. mellonella larvae at 20 µM ([2]; 10 day observation, toxic if more than 20% of larvae died): not toxic
- larval survival ([2]; 10 days, uninfected larvae): above 80%
- MIC ([3]; Gram-positive vancomycin-resistant Staphylococcus aureus strains): 0.06 µg/mL (≈ 0.156 µM)
- biofilm formation ([3]; vancomycin-resistant staphylococci): able to inhibit biofilm formation
- Survival of M. mycetomatis-infected larvae versus PBS [4]: prolonged the survival; also recorded: prolonged larval survival
- activity at 2 µM (M. mycetomatis [5]): 2.3%

Compound: CCC(C)n1ncn(-c2ccc(N3CCN(c4ccc(OCC5COC(Cn6cncn6)(c6ccc(Cl)cc6Cl)O5)cc4)CC3)cc2)c1=O (stereo not shown) [Itraconazole hydrochloride]
- larval survival [6]: No prolonged larval survival
- IC50 (M. mycetomatis strain I1): 0.78 µM
- MIC (M. mycetomatis strain I1): 1 µM
- IC50 [1]: 1.58 µM
- MIC [1]: 2 µM
- MIC50 (M. mycetomatis [7]): 0.06 µg/mL
- IC50 (M. mycetomatis strain P1): 0.84 µM
- MIC (M. mycetomatis strain P1): 2 µM
- lesion size or β-glucan levels (eumycetoma; 400 mg/day, first 6 months of treatment): no reduction
- cure rate (eumycetoma; itraconazole combined with surgery, clinical trial setting): 80%
- activity in M. mycetomatis mouse model [8]: lack of activity
- activity at 2 µM (M. mycetomatis [5]): 6.1%

Compound: Cc1ccc(S(=O)(=O)/C=C/C#N)cc1 [bay117082]
- chemotaxis, phagocytosis and killing activity of neutrophils [9]: able to reduce

Compound: O=C(Nc1ccc([N+](=O)[O-])cc1Cl)c1cc(Cl)ccc1O [niclosamide]
- activity against M. mycetomatis (M. mycetomatis [10]): active
